SMILES strings stand for the structures. Read-outs that look alike come from different tables or passages of the source.

Test [1] relates to 3β-hydroxysterol synthesis. In words: Test C: In Vivo Cholesterol Biosynthesis Inhibition Test. The arrangement: species or system rat (male Wistar Royal Hart). As to conditions: for ED50: Rattus norvegicus, read-out: ED50 (50% inhibition of 3β-hydroxysterol synthesis).
Method: Test C. In Vivo Cholesterol Biosynthesis Inhibition Test:
In vivo studies utilize male Wistar Royal Hart rats weighing 150±20 g. which have been kept for 7-10 days on an altered light cycle (6:30 A.M.-6.30 P.M. dark) housed two per cage and fed powdered Purina Rat Chow and water ad libitum. Three hours before the diurnal maximum of cholesterol synthesis at mid-dark, the rats are administered the test substances dissolved or as a suspension in 0.5% carboxymethylcellulose in a volume of 1 ml./100 g. body weight. Controls receive vehicle alone. One hour after receiving the test substance, the rats are injected intraperitoneally with about 25 μCi/100 g. body weight of sodium [1-^14 C]acetate 1-3 mCi/mmol. Two hours after mid-dark, blood samples are obtained under sodium hexobarbitol anesthesia, and the serum separated by centrifugation. (The dosage of the test substance is 0.01-200 mg./kg. body weight.)
The [^14 C]digitonides are then counted by liquid scintillation spectrometry. After correcting for efficiencies, the results are calculated in nCi (nanocuries) of sterol formed per 100 ml. of serum. Inhibition of sterol synthesis is calculated from the reduction in the nCi of sterols formed from test groups compared to controls.
The ED50 is the dose of the test substances observed or calculated to produce a 50% inhibition of 3β-hydroxysterol synthesis.
Test [2] has as its target T1, HMG-CoA reductase (Rattus norvegicus, UniProt P51639).
T1 construct: rat liver microsomal suspensions, freshly prepared from male Sprague-Dawley rats; from tissue; host or cells: liver microsomes of male Sprague-Dawley rats
T1 sequence (P51639 1-887): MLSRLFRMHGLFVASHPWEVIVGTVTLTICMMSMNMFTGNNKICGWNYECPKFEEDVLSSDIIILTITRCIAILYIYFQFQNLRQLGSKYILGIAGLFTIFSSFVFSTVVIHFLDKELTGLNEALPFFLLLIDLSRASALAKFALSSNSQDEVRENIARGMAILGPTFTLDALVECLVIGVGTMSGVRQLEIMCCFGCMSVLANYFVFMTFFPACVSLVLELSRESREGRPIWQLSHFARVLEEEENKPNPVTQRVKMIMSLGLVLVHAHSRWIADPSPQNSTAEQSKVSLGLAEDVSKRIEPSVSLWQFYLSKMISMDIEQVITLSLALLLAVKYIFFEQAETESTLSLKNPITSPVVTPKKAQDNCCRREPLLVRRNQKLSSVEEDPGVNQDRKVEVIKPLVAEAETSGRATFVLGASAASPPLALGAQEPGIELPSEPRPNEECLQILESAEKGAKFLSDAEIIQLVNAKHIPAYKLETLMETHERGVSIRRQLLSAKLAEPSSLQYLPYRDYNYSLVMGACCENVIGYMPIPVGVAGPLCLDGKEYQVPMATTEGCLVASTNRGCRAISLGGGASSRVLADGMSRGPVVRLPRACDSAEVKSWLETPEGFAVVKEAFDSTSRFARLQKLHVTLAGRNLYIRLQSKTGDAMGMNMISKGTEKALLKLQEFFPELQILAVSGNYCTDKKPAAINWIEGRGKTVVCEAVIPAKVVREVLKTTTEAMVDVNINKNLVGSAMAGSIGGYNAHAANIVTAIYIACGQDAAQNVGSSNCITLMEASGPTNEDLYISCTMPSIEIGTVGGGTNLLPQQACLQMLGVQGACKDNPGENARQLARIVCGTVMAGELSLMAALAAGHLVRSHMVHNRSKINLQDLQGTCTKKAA
In words: Test A: In Vitro Microsomal Assay of HMG-CoA Reductase Inhibition. As to conditions: rat liver microsomes, read-out: IC50 (50% inhibition of HMG-CoA reductase activity). The test is classed as biochemical. The method, then: Test A. In Vitro Microsomal Assay of HMG-CoA Reductase Inhibition:
200 μl. aliquots (1.08-1.50 mg./ml.) of rat liver microsomal suspensions, freshly prepared from male Sprague-Dawley rats (150-225 g. body weight), in Buffer A with 10 mmol. dithiothreitol are incubated with 10 μl. of a solution of the test substance dissolved in dimethylacetamide and assayed for HMG-CoA reductase activity as described by Ackerman et al., J. Lipid Res. 18, 408-413 (1977), the concentration of the test substance in the assay system being 0.01-2,000 μmolar. In the assay the microsomes are the source of the HMG-CoA reductase enzyme which catalyzes the reduction of HMG-CoA to mevalonate. The assay employs a chloroform extraction to separate the product, [^14 C]-mevalonolactone, formed by the HMG-CoA reductase reaction from the substrate, [^14 C]HMG-CoA. [^3 H]mevalonolactone is added as an internal reference. Inhibition of HMG-CoA reductase is calculated from the decrease in specific activity [^14 C/^3 H]mevalonate) of test groups compared to controls.
IC50 is the concentration of the test substance in the assay system observed or calculated to produce a 50% inhibition of HMG-CoA reductase activity (Test A) or sterol biosynthesis (Test B).
(In general: Liver microsomes are a subcellular fraction often used to study metabolism.)

Test [3] deals with sterol biosynthesis in Fu5AH rat hepatoma cell line. Kind of test: Test B: In Vitro Cell Culture Cholesterol Biosynthesis Screen. The test is classed as cell-based. The settings on record: Fu5AH rat hepatoma cells, [14C]acetate, 3 hours, read-out: IC50 (50% inhibition of sterol biosynthesis). The method, then:
Test B. In Vitro Cell Culture Cholesterol Biosynthesis Screen:
The cell culture is prepared as follows: Stock monolayer cultures of the Fu5AH rat hepatoma cell line (originally obtained from G. Rothblat; see Rothblat, Lipids 9, 526-535 (1974) are routinely maintained in Eagle's Minimum Essential Medium (EMEM) supplemented with 10% fetal bovine serum (FBS) in 75 cm^2. tissue culture flasks. For these studies, when the cultures reach confluence, they are removed by mild enzymatic treatment with 0.25% trypsin in Hank's balanced salt solution (without calcium and magnesium). After centrifugation of the cell suspension and aspiration of the enzymatic solution, the cell pellet is resuspended in an appropriate volume of media for seeding into 60 mm. tissue culture dishes. The cultures are incubated at 37° C. in an atmosphere of high humidity and 5% carbon dioxide. When the cultures are confluent (approximately 5 days), they are ready for use. The culture media is aspirated from the dishes and replaced with 3 ml. of EMEM supplemented with 5 mg./ml. of delipidized serum protein (DLSP) prepared by the method of Rothblat et al., In Vitro 12, 554-447 (1976). […] Enhanced 3-hydroxy-3-methylglutaryl Coenzyme A reductase (HMG-CoA reductase) activity is measurable in the cells in response to the lack of exogenous sterol. Following approximately 24 hours incubation at 37° C. in the DLSP supplemented media, the assay is initiated by the addition of 3 μCi of [^14 C]acetate and the test substances solubilized in dimethylsulfoxide (DMSO) or distilled water. Solvent controls and compactin-treated controls are always prepared. Triplicate 60 mm. tissue culture dishes are run for each group. After 3 hours incubation at 37° C., the cultures are examined microscopically using an inverted phase contrast microscope. Notations are made of any morphological changes which may have occurred in the cultures. The media is aspirated and the cell layer is gently washed twice with 0.9% sodium chloride solution (saline). The cell layer is then harvested in 3 ml. of 0.9% saline by gentle scraping with a rubber policeman and transferred to a clean glass tube with Teflon lined cap. The dishes are rinsed with 3 ml. of 0.9% saline and rescraped, and the cells are combined with the first harvest. The tubes are centrifuged at 1500 r.p.m. for 10 minutes in an IEC PR-J centrifuge, and the supernatant is aspirated.
The cells are then extracted as follows: One ml. of 100% ethanol is added to the cell pellet followed by sonication for 10 seconds with a "LO" setting of 50 on a Bronwell Biosonik IV. One hundred μl. are taken for protein determination. One ml. of 15% potassium hydroxide (KOH) is added, and the samples are thoroughly vortexed. Saponification is accomplished by heating the ethanol-KOH treated samples at 60° C. for 60 minutes in a water bath. Following dilution of the samples with 2 ml. of distilled water, they are extracted three times with 7 ml. of petroleum ether. The petroleum ether extracts are then washed three times with 2 ml. of distilled water and finally taken to dryness under a stream of nitrogen.
The obtained samples are then analyzed by thin layer chromatography (TLC) as follows: Residues from the petroleum ether extraction are taken up in a small volume of hexane and spotted on silica gel 60 TLC plates (E. Merck). Development of the plates is carried out in a three phase solvent system consisting of 150 parts by volume hexane: 50 parts by volume diethyl ether: 5 parts by volume glacial acetic acid. Visualization is accomplished in an iodine vapor chamber. The plates are divided into five sections such that each section contains the molecules having the following approximate Rf value: section 1-0-0.4, section 12-0.4-0.55, section 3-0.55-0.7, section 4-0.7-0.9 and section 5-0.9-1.0. Section 2 contains the non-saponifiable sterols. The five sections of the TLC plates are scraped into scintillation vials. […]

[4] abbreviates: Test C, male Wistar Royal Hart rats.

With `CC[C@H](C)C(=O)O[C@H]1C[C@@H](C)C=C2C=C[C@H](C)[C@H](CC[C@@H]3C[C@@H](O)CC(=O)O3)[C@H]21` [Mevinolin, reference compound], in test [1], the ED50 worked out at 0.41 mg/kg. With `CCOC(=O)CC(O)CC(O)/C=C/[C@@H]1[C@@H](c2ccc(F)cc2)[C@H](C)CC[C@H]1C(C)C` (stereo partly drawn) [Example 86], the IC50 in test [2] is 141 µM; in test [3], 5.4 µM. Turning to `C[C@@H]1CC[C@H](C)[C@H](c2ccc(F)cc2)[C@H]1CCC(O)CC(O)CC(=O)O` (stereo partly drawn) [Example 85], in test [2], the IC50 was found to be 7.2 µM. Regarding `C[C@@H]1C=C[C@H](C)[C@@H](/C=C/C2CC(O)CC(=O)O2)[C@@H]1c1ccc(F)cc1` (stereo partly drawn) [Example 74], the IC50 in test [2] worked out at 116 µM; in test [3], 5.8 µM. Also, the ED50 in test [1] (setting [4]) is 20 mg/kg. Taken in the same sequence, the figures for `C[C@@H]1C=C[C@H](C)[C@H](c2ccc(F)cc2)[C@H]1/C=C/C(O)CC(O)CC(=O)O` (stereo partly drawn) [Example 5, Sodium (E)-3,5-dihydroxy-7-[2'α,5'α-dimethyl-6'α-(4"-fluorophenyl)cyclohex-3'-en-1'βS-yl]hept-6-enoate] were 1.19 µM, 0.6 µM and 2.07 mg/kg. Taken in the same sequence, the figures for `C[C@@H]1C=C[C@H](C)[C@H](c2ccc(F)cc2)[C@H]1/C=C/C1CC(O)CC(=O)O1` (stereo partly drawn) [Example 3, (E)-6-[2'-(2"α,5"α-Dimethyl-6"α-(4'"-fluorophenyl)cyclohex-3"-en-1"βS-yl)ethenyl]-4-hydroxy-3,4,5,6-tetrahydro-2H-pyran-2-one] were 8.13 µM, 1.2 µM and 2.4 mg/kg.

For `C[C@@H]1C=C[C@H](C)[C@H](c2ccc(F)cc2)[C@H]1/C=C/[C@@H](O)C[C@@H](O)CC(=O)O` [Example 5A, Sodium (E)-3R,5S-dihydroxy-7-[2'α,5'α-dimethyl-6'α-(4"-fluorophenyl)cyclohex-3'-en-1'βS-yl]hept-6-enoate], in test [2], the IC50 worked out at 0.54 µM.

Regarding `O=C1CC(O)CC(/C=C/[C@H]2CC=CC[C@@H]2c2ccccc2)O1` (stereo partly drawn) [Example 67B], the IC50 in test [2] stood at 1370 µM. As to `CC[C@H](C)C(=O)O[C@H]1CCC=C2C=C[C@H](C)[C@H](CC[C@@H]3C[C@@H](O)CC(=O)O3)[C@H]21` [Compactin, reference compound], the results for the IC50 in test [2] and in test [3] were 0.94 µM and 0.08 µM, respectively. Further, in test [1] (setting [4]), the ED50 amounted to 3.5 mg/kg.

`CCOC(=O)CC(O)CC(O)/C=C/[C@@H]1[C@@H](c2cccc3ccccc23)[C@@H](C)C=C[C@H]1C` (stereo partly drawn) [Example 6, Ethyl (E)-3,5-dihydroxy-7-(2'α,5'α-dimethyl-6'α-naphth-1"-ylcyclohex-3'-en-1'βS-yl)hept-6-enoate]: in test [2], the IC50 came to 5.57 µM. As for `C[C@@H]1C=C[C@H](C)[C@H](c2ccccc2)[C@H]1/C=C/C1CC(O)CC(=O)O1` (stereo partly drawn) [Example 79], the results for the IC50 in test [2] and in test [3] were 29 µM and 4.8 µM, respectively. The “change in 3β-hydroxysterol synthesis” value in test [1] (Test C, male Wistar Royal Hart rats, at 5.9 mg./kg.) is -62%. On to `O=C1CC(O)CC(/C=C/[C@@H]2CC=CC[C@H]2c2ccc(Cl)cc2)O1` (stereo partly drawn) [Example 73], for which the half-maximal inhibitory concentration (IC50) in test [2] turned out to be 450 µM. On to `C[C@@H]1C=C[C@H](C)[C@H](c2ccc(F)cc2)[C@H]1/C=C/[C@@H]1C[C@@H](O)CC(=O)O1` [Example 3A, (E)-Trans-6S-[2'-(2"α,5"α-Dimethyl-6"α-(4'"-fluorophenyl)cyclohex-3"-en-1"βS-yl)ethenyl]-4R-hydroxy-3,4,5,6-tetrahydro-2H-pyran-2-one], for which, in test [2], the IC50 was determined as 3.23 µM.

The term ED50 denotes the midpoint of the dose-response relation. What is called IC50 is the concentration that inhibits the measured activity by half.

The record behind these values is patent publication US4876280A, “Arylcyclohexane and arylcyclohexene analogs of mevalonolactone derivatives and their use” (Sandoz Pharm. Corp., priority 1988, dated 1989).
